From ChEMBL document CHEMBL4483862, “Open-source discovery of chemical leads for next-generation chemoprotective antimalarials” (2018) come the findings set out here.

The subject of the assay is Plasmodium berghei. The assay is described as follows: Luciferase/luciferin-expressing antifolate-resistant parasites were used to infect a culture of HepG2 cells that were pre-incubated with compounds. Infected hepatocytes emit light due to the luciferase reaction. Assay results are presented as the percent inhibition of light emission compared to control. […]. The conditions noted are these: sporozoite; for IC90: read-out: LUCIFERASE INFECTION ASSAY - IC90. It counts as functional.

Consider `COc1ccccc1NC(=O)Nc1nc(C(N)CCc2ccccc2)cs1` (configuration not stated), for which the 90% effect concentration (IC90) is more than 8.63 µM. For the same compound, the half-maximal inhibitory concentration (IC50) (PBLUC_HILL_SLOPE 2.77, PBLUC_R_SQUARED 0.721, read-out: LUCIFERASE INFECTION ASSAY - IC50) stood at 5.07 µM.

Regarding `Cc1ccc(S(=O)(=O)Nc2ccc(Nc3nccn4c(-c5cccc(OC(F)(F)F)c5)cnc34)cc2)cc1`, the concentration for an effect of 90% (IC90) is more than 6.12 µM. Also, the IC50 (PBLUC_HILL_SLOPE 2.83, PBLUC_R_SQUARED 0.42, read-out: LUCIFERASE INFECTION ASSAY - IC50) worked out at 3 µM.

For `OC1CCC(Nc2ccn3nc(-c4cccc(OCc5ccccc5)c4)cc3n2)CC1` (configuration not stated), the IC90 is 7.29 µM. The IC50 (PBLUC_HILL_SLOPE 2.85, PBLUC_R_SQUARED 0.208, read-out: LUCIFERASE INFECTION ASSAY - IC50) came to 3.37 µM.

Regarding `CN1CCN(C(=O)c2cccc(-c3cnc4cnc(-c5cccc(Cl)c5)cn34)c2)CC1`, the 90% effect concentration (IC90) is more than 7.64 µM. For the same compound, the IC50 (PBLUC_HILL_SLOPE 2.84, PBLUC_R_SQUARED 0.435, read-out: LUCIFERASE INFECTION ASSAY - IC50) amounted to 4.45 µM.

`COC(=O)c1sccc1NC(=O)N(C)Cc1ccc(C)cc1C`: the IC90 was more than 10 µM. Moreover, the IC50 (PBLUC_HILL_SLOPE 2.81, PBLUC_R_SQUARED 0.305, read-out: LUCIFERASE INFECTION ASSAY - IC50) came to 6.58 µM.

`CCn1ncc2c(C(=O)Nc3ccc(-c4cn5ccsc5n4)cc3)cc(-c3cccs3)nc21`: the 90% effect concentration (IC90) is more than 10 µM. Moreover, for the setting “PBLUC_HILL_SLOPE 2.78, PBLUC_R_SQUARED 0.317, read-out: LUCIFERASE INFECTION ASSAY - IC50”, the IC50 worked out at 7.98 µM.

In the case of `COc1cc(F)c(S(=O)(=O)N2CCCc3cc(F)cc(F)c32)cc1OC`, the IC90 is more than 10 µM. Moreover, the half-inhibitory concentration (IC50) (PBLUC_HILL_SLOPE 2.81, PBLUC_R_SQUARED 0.427, read-out: LUCIFERASE INFECTION ASSAY - IC50) was 6.52 µM.

In the case of `O=c1[nH]c2ccccc2c(O)c1F`, the IC90 worked out at 2.92 µM. For the same compound, the 50% inhibitory concentration (IC50) (PBLUC_HILL_SLOPE 2.84, PBLUC_R_SQUARED 0.833, read-out: LUCIFERASE INFECTION ASSAY - IC50) stood at 1.35 µM.

Take `CN1N=C(SCc2ccc(Cl)cc2Cl)Sc2c1cnn(C)c2=O`: the IC90 was more than 8.52 µM. Besides, where the note is “PBLUC_HILL_SLOPE 2.78, PBLUC_R_SQUARED 0.171, read-out: LUCIFERASE INFECTION ASSAY - IC50”, the IC50 was 5.14 µM.

As to `CC(C)Cc1ccc(C(NC(=O)CCc2ccc(S(N)(=O)=O)cc2)c2cccs2)cc1` (configuration not stated), the concentration for an effect of 90% (IC90) was more than 10 µM. Under “PBLUC_HILL_SLOPE 2.82, PBLUC_R_SQUARED 0.609, read-out: LUCIFERASE INFECTION ASSAY - IC50”, the concentration for half-maximal inhibition (IC50) was 7.34 µM.

As for `COc1ccc(CN(Cc2n/c(=N\c3ccccc3C)nc(N)[nH]2)Cc2n/c(=N\c3ccccc3C)nc(N)[nH]2)cc1OC`, the 90% effect concentration (IC90) was 4.51 µM. In addition, under “PBLUC_HILL_SLOPE 2.79, 12.2, PBLUC_R_SQUARED 0.127, 0.675, read-out: LUCIFERASE INFECTION ASSAY - IC50”, the concentration for half-maximal inhibition (IC50) was determined as 2.77 µM.

As for `Cc1nn(-c2ccccc2Cl)c2sc(C(=O)NC3CCN(C(C)C)CC3)cc12`, the 90% effect concentration (IC90) is more than 10 µM. The 50% inhibitory concentration (IC50) (PBLUC_HILL_SLOPE 2.83, PBLUC_R_SQUARED 0.189, read-out: LUCIFERASE INFECTION ASSAY - IC50) amounted to 5.04 µM.

Consider `C=CC/N=c1\scc(-c2ccc(OC(F)F)cc2)n1/N=C/c1ccc(O)cc1O`, for which the IC90 was more than 10 µM. Also, the IC50 (PBLUC_HILL_SLOPE 2.81, PBLUC_R_SQUARED 0.0539, read-out: LUCIFERASE INFECTION ASSAY - IC50) is more than 10 µM.

In the case of `Cc1cc(Cl)ccc1OCCCc1nc2ccc(Cl)cc2[nH]1`, the IC90 is more than 10 µM. Besides, the IC50 (PBLUC_HILL_SLOPE 2.8, PBLUC_R_SQUARED 0.541, read-out: LUCIFERASE INFECTION ASSAY - IC50) worked out at 7.39 µM.

`COc1ccc(-c2cnc3cnc(-c4cccc(NC(C)=O)c4)cn23)cc1`: the 90% effect concentration (IC90) was more than 9.21 µM. Further, the half-inhibitory concentration (IC50) (PBLUC_HILL_SLOPE 2.77, PBLUC_R_SQUARED 0.737, read-out: LUCIFERASE INFECTION ASSAY - IC50) came to 4.22 µM.

In the case of `COC(=O)CCSc1c2ccc(Cl)cc2nc2ccc(OC)cc12`, the 90% effect concentration (IC90) was determined as 0.454 µM. For the same compound, the IC50 (PBLUC_HILL_SLOPE 2.8, PBLUC_R_SQUARED 0.704, read-out: LUCIFERASE INFECTION ASSAY - IC50) worked out at 0.207 µM.

Take `CCCCCc1ccc(C(=O)Nc2nc3ccc(C)cn3c2C(=O)NCCCC)cc1`: the IC90 was more than 7.85 µM. The IC50 (PBLUC_HILL_SLOPE 2.82, PBLUC_R_SQUARED 0.514, read-out: LUCIFERASE INFECTION ASSAY - IC50) came out at 4.14 µM.

Turning to `CCC(CO)Nc1ccc2ncc(-c3ccc(OC)nc3)n2n1` (configuration not stated), the concentration for an effect of 90% (IC90) was 5.43 µM. Moreover, the IC50 (PBLUC_HILL_SLOPE 2.84, PBLUC_R_SQUARED 0.538, read-out: LUCIFERASE INFECTION ASSAY - IC50) amounted to 2.51 µM.

Turning to `CCc1cc2c(Nc3ccc4c(c3)OCO4)nc(C)nc2s1`, the IC90 was more than 10 µM. The IC50 (PBLUC_HILL_SLOPE 2.79, PBLUC_R_SQUARED 0.532, read-out: LUCIFERASE INFECTION ASSAY - IC50) is 6.73 µM.

Consider `Cc1ccc(C(=O)Nc2nc(CC34CC5CC(CC(C5)C3)C4)cs2)s1`, for which the 90% effect concentration (IC90) was more than 10 µM. Moreover, for the setting “PBLUC_HILL_SLOPE 2.85, PBLUC_R_SQUARED 0.204, read-out: LUCIFERASE INFECTION ASSAY - IC50”, the IC50 was determined as 6.66 µM.

On to `Cc1cc(C(=O)Cn2c(C(C)O)nc3ccccc32)c(C)n1-c1ccc(F)c(Cl)c1` (configuration not stated), for which the concentration for an effect of 90% (IC90) is more than 10 µM. Where the note is “PBLUC_HILL_SLOPE 2.79, PBLUC_R_SQUARED 0.449, read-out: LUCIFERASE INFECTION ASSAY - IC50”, the IC50 was found to be 7.26 µM.

As for `COc1ccc(Nc2nccc3c2cc(-c2cccc(OC)c2)n3C)cc1`, the concentration for an effect of 90% (IC90) stood at 8.15 µM. Also, for the setting “PBLUC_HILL_SLOPE 2.81, PBLUC_R_SQUARED 0.348, read-out: LUCIFERASE INFECTION ASSAY - IC50”, the IC50 amounted to 3.73 µM.

As for `COc1cc(OC)c2[nH]c(C(=O)Nc3ccc(-n4cccn4)cc3)cc2c1`, the 90% effect concentration (IC90) is more than 10 µM. Also, the IC50 (PBLUC_HILL_SLOPE 2.78, PBLUC_R_SQUARED 0.238, read-out: LUCIFERASE INFECTION ASSAY - IC50) came to 6.45 µM.

With `CCn1c2ccccc2c2cc(NC(C)C(=O)N3CCNC3=O)ccc21` (configuration not stated), the IC90 amounted to 4.48 µM. Also, the 50% inhibitory concentration (IC50) (PBLUC_HILL_SLOPE 2.83, PBLUC_R_SQUARED 0.574, read-out: LUCIFERASE INFECTION ASSAY - IC50) turned out to be 2.06 µM.

In the case of `O=C(NNC(=O)c1cc2c(s1)CCC2)c1csc(COc2ccc(F)cc2)n1`, the 90% effect concentration (IC90) turned out to be 8.59 µM. In addition, where the note is “PBLUC_HILL_SLOPE 2.84, PBLUC_R_SQUARED 0.402, read-out: LUCIFERASE INFECTION ASSAY - IC50”, the concentration for half-maximal inhibition (IC50) came to 3.96 µM.

`CC(C)(C)C(=O)/C=c1\[nH]c(=O)/c(=C/c2cc(F)cc3c2OCOC3)s1`: the concentration for an effect of 90% (IC90) is more than 10 µM. The IC50 (PBLUC_HILL_SLOPE 2.84, PBLUC_R_SQUARED 0.665, read-out: LUCIFERASE INFECTION ASSAY - IC50) was 6.37 µM.

As to `CN(C)C(=O)N1CCCC(C(=O)Nc2nc(-c3c(F)cccc3F)cs2)C1` (configuration not stated), the IC90 was more than 10 µM. In addition, the IC50 (PBLUC_HILL_SLOPE 2.82, PBLUC_R_SQUARED 0.52, read-out: LUCIFERASE INFECTION ASSAY - IC50) was 5.62 µM.

In the case of `CCN(CC)CCn1c(NC(=O)c2cnc3c(cnn3C(C)C)c2)nc2ccccc21`, the concentration for an effect of 90% (IC90) is 6.55 µM. Moreover, the IC50 (PBLUC_HILL_SLOPE 2.78, PBLUC_R_SQUARED 0.504, read-out: LUCIFERASE INFECTION ASSAY - IC50) is 2.97 µM.

Take `Cc1cc(C)cc(C(=O)NCC(=O)N(C)Cc2cn(-c3ccccc3)nc2-c2ccccc2)c1`: the IC90 was more than 10 µM. Besides, the 50% inhibitory concentration (IC50) (PBLUC_HILL_SLOPE 2.80, 14.9, PBLUC_R_SQUARED 0.685, 0.405, read-out: LUCIFERASE INFECTION ASSAY - IC50) was found to be 7.57 µM.

In the case of `CC(=O)c1cccc(-c2cnc3cnc(-c4ccccc4)cn23)c1`, the IC90 was more than 10.5 µM. In addition, where the note is “PBLUC_HILL_SLOPE 2.79, PBLUC_R_SQUARED 0.249, read-out: LUCIFERASE INFECTION ASSAY - IC50”, the half-maximal inhibitory concentration (IC50) came to 9.07 µM.

On to `CC(C)NC(=O)c1c(NC(=O)c2cc(F)ccc2F)nc2ccccn12`, for which the IC90 was more than 9.21 µM. Further, the IC50 (PBLUC_HILL_SLOPE 2.78, PBLUC_R_SQUARED 0.497, read-out: LUCIFERASE INFECTION ASSAY - IC50) came to 6.02 µM.

On to `Cn1ccnc1SCC(=O)N1N=C2/C(=C/c3ccccc3)CCCC2C1c1ccccc1` (configuration not stated), for which the IC90 was more than 10 µM. Further, under “PBLUC_HILL_SLOPE 2.84, PBLUC_R_SQUARED 0.326, read-out: LUCIFERASE INFECTION ASSAY - IC50”, the half-inhibitory concentration (IC50) stood at 8.34 µM.

For the compound `Cc1ccc(S(=O)(=O)Nc2ccc(C(=O)Nc3ccccc3O)cc2)cc1C`, the IC90 stood at 2.52 µM. The IC50 (PBLUC_HILL_SLOPE 2.83, PBLUC_R_SQUARED 0.529, read-out: LUCIFERASE INFECTION ASSAY - IC50) came to 1.16 µM.

`O=C(c1cc(-c2cccc3ccccc23)nc2ccccc12)N1CCN(c2ncccn2)CC1`: the IC90 was more than 10 µM. Besides, the IC50 (PBLUC_HILL_SLOPE 2.78, PBLUC_R_SQUARED 0.395, read-out: LUCIFERASE INFECTION ASSAY - IC50) came out at 8.3 µM.

As for `Fc1ccc(-c2nc3ccnc(Nc4ccccc4)c3[nH]2)cc1F`, the concentration for an effect of 90% (IC90) was more than 10 µM. In addition, the IC50 (PBLUC_HILL_SLOPE 2.79, PBLUC_R_SQUARED 0.219, read-out: LUCIFERASE INFECTION ASSAY - IC50) worked out at 5.41 µM.

On to `N=c1c2ccccc2nnn1-c1ccc(C(F)(F)F)cc1`, for which the 90% effect concentration (IC90) is 7.24 µM. In addition, the IC50 (PBLUC_HILL_SLOPE 2.81, PBLUC_R_SQUARED 0.81, read-out: LUCIFERASE INFECTION ASSAY - IC50) is 3.32 µM.
